BindingDB's records for doi:10.1021/jm050965z (Millennium Pharmaceuticals, 2006)
pIC50: −log10 of the molar value.

Assay: Inhibition of I309-induced chemotaxis in L1.2 cells expressing CCR8

SMILES | pIC50
CCN1CCC(C(=O)NC2CCN(Cc3cccc(Oc4ccccc4OC)c3)CC2)(c2ccccc2)CC1 [1-ethyl-4-phenyl-piperidine-4-carboxylic acid {1-[3-(2-methoxy-phenoxy)-benzyl]-piperidin-4-yl}-amide] | 7.25
CC(C)(C(=O)O)N1CCC(C(=O)NC2CCN(Cc3cccc(Oc4ccccc4Cl)c3)CC2)(c2ccccc2)C1 (configuration not stated) [2-(3-((1-(3-(2-chlorophenoxy)benzyl)piperidin-4-yl)carbamoyl)-3-phenylpyrrolidin-1-yl)-2-methylpropanoic acid] | 9.00
O=C(NC1CCN(Cc2cccc(Oc3ccccc3Cl)c2)CC1)C1(c2ccccc2)CCNC1 (racemic) [(+/-) 3-phenyl-pyrrolidine-3-carboxylic acid {1-[3-(2-chloro-phenoxy)-benzyl]-piperidin-4-yl}-amide] | 7.66
COc1ccccc1Oc1cccc(CN2CCC(NC(=O)C3(c4ccccc4)CCNCC3)CC2)c1 [4-phenyl-piperidine-4-carboxylic acid {1-[3-(2-methoxy-phenoxy)-benzyl]-piperidin-4-yl}-amide] | 7.96
CCN1CCC(C(=O)NC2CCN(Cc3cccc(Oc4ccccc4Cl)c3)CC2)(c2ccccc2)CC1 [1-ethyl-4-phenyl-piperidine-4-carboxylic acid {1-[3-(2-chloro-phenoxy)-benzyl]-piperidin-4-yl}-amide] | 7.37
CC(C)(C(=O)O)N1CCC(C(=O)NC2CCN(Cc3cccc(Oc4ccccc4Cl)c3)CC2)(c2ccccc2)CC1 [2-(4-{1-[3-(2-chloro-phenoxy)-benzyl]-piperidin-4-ylcarbamoyl}-4-phenyl-piperidin-1-yl)-2-methyl-propionic acid] | 8.40
COc1ccccc1Oc1cccc(CN2CCC(NC(=O)Cc3ccccc3)CC2)c1 [N-{1-[3-(2-methoxy-phenoxy)-benzyl]-piperidin-4-yl}-2-phenyl-acetamide] | 7.26
